Source: publication PMC7080599 (European journal of nuclear medicine and molecular imaging, 2019)

Target: T1, lymphokine-activated killer T-cell-originated protein kinase (TOPK) (Homo sapiens, UniProt Q96KB5)
T1 sequence (Q96KB5 1-322): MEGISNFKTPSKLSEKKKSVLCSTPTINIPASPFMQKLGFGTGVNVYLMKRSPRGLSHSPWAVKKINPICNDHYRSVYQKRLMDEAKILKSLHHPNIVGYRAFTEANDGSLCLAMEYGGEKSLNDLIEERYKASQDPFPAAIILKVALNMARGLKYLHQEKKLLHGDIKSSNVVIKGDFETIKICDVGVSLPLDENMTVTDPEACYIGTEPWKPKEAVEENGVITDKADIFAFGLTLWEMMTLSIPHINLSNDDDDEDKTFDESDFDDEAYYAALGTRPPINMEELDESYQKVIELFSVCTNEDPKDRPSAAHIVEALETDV
Experiment: in vitro TOPK kinase assay
Assay type: biochemical

Work on Cc1cc(O)c(-c2ccc([C@@H](C)CNc3ccc([N+](=O)[O-])c4nonc34)cc2)c2c1[nH]c(=O)c1sccc12 [TOPKi-NBD, (R)-8-hydroxy-6-methyl-9-(4-(1-((7-nitrobenzo[c][1,2,5]oxadiazol-4-yl)amino)propan-2-yl)phenyl)thieno[2,3-c]quinolin-4(5H)-one] yielded an EC50 of 490 ± 170 nM.
